Results as given in patent publication US20190281845A1, “EDIBLE BIO-ACTIVE FILMS BASED ON CHITOSAN OR A MIXTURE OF QUINOA PROTEIN-CHITOSAN; SHEETS HAVING CHITOSAN-TRIPOLYPHOSPHATE-THYMOL NANOPARTICLES; PRODUCTION METHOD; BIO-PACKAGING COMPRISING SAME; AND USE THEREOF IN FRESH FRUIT WITH A LOW PH” (Universidad de Chile, priority 2016, published 2019).

Legend:
S. typhimurium = experiment: Minimum inhibitory concentration in liquid culture (serial dilutions, turbidity); format: cell-based, Salmonella serovar Typhimurium ATCC 14028; details: S. Tiphymurium; 24 h
Experimental: (§1) To evaluate the antimicrobial capacity of the ink prepared from the NQoT dispersion, the minimum concentration that is able to inhibit the visible development of the bacterial strains S. aureus; E. coli; P. aeruginosa; S. typhimurium; E. aerogenes and L. innocua in a liquid culture medium (trypticase soy broth), after 24 h incubation, was determined. Bacterial strains were obtained from an isolated colony on a selective and differential agar plate for each genus, and were inoculated in nutritious broth for 24 h at 37° C. with stirring until obtaining a saturated culture. Then, the desired concentration of microorganisms was determined, in comparison with the standard of McFarland 0.5, and the corresponding dilutions were made in order to reach a concentration of 1×10^5 CFU/ml (colony-forming units/ml). To each culture tube, agents in serial dilutions were added, and incubated at 37° C. for 24 h; then, the lowest concentration of the mixture capable of inhibiting bacterial growth, given by absence of turbidity in the culture medium, was determined. The solutions used to generate the Nps and nanoparticles without T in their formulation (NQo) were used as controls. […]

E. coli [1] = experiment: as above; format: cell-based, Escherichia coli ATCC 25922; details: 24 h
Experimental: as §1

E. aerogenes = experiment: as above; format: cell-based, Enterobacter aerogenes ATCC 13048; details: 24 h
Experimental: as §1

L. innocua = experiment: as above; format: cell-based, Listeria innocua ATCC 33090; details: 24 h
Experimental: as §1

P. aeruginosa = experiment: as above; format: cell-based, Pseudomonas aeruginosa ATCC 27853; details: Ps. aeruginosa; 24 h
Experimental: as §1

S. aureus [2] = experiment: as above; format: cell-based, Staphylococcus aureus ATCC 25923; details: 24 h
Experimental: as §1

B. cinerea = experiment: Minimum inhibitory concentration against the fungus; format: cell-based, Botrytis cinerea wt
B. cinerea mycelium = experiment: Inhibition of Botrytis cinerea mycelium (radial growth on agar); format: cell-based; details: for Radial mycelial growth area: 6 days at 25° C., untreated 8.5 cm^2
Experimental: The antifungal activity of the NQoT dispersion was evaluated by inhibiting the radial development in the fungus mycelial plate, described by Yildirim et al., (2007). For that purpose, a portion of mycelium was sterilely taken, using a punch, from a strain previously cultivated for 5 days at 25° C., which was placed in the center of a potato dextrose agar plate mixed with dilutions of the NQoT dispersion until obtaining in the agar concentrations of 0.44 mg/ml (dispersion diluted to 10% v/v), 1.1 mg/ml (dispersion diluted to 25% v/v) and 2.2 mg/ml (dispersion diluted to 50% v/v). These plates were incubated for 6 days at 25° C., being evaluated every 24 h. The antifungal activity was determined through the mycelium propagation area of the plates containing NQoT, and were compared with agar plates containing T solutions, mixture of QoLMW-T, and the NQo dispersion in the same dilutions, and a culture of the fungus seeded in a plate without treatment, whose propagation on the surface of the plate (8.5 cm2) is equivalent to a 100% development, which was used as a parameter of growth comparison.
On the other hand, the antifungal capacity of the NQoTs confronted to the vegetative form of Botrytis cinerea was tested, wherein the growth inhibition of this fungus' mycelium was assessed, adding diluted concentrations to the culture medium of the NQoT dispersion. The dilutions tested corresponded to 10%, 25% and 50% v/v, and were compared to T's solutions, QoLMW-T mixture, and NQo dispersion in the same dilutions.
It was observed, when the culture medium lacked the solutions or dispersions to be tested (viability control), that the fungus spread over the surface of the plate (8.5 cm^2), equivalent to 100% growth, which was used as a growth comparison parameter.

S. aureus [3] = details: Guarda et al., 2011; cited from earlier work
Listeria innocua = details: Guarda et al., 2011; cited from earlier work
E. coli [4] = details: Guarda et al., 2011; cited from earlier work
A. niger = details: Guarda et al., 2011; cited from earlier work
S. cereviciae = details: Guarda et al., 2011; cited from earlier work
[5] = agent diluted to 10% v/v in culture medium
[6] = agent diluted to 25% v/v in culture medium

SMILES: Cc1ccc(C(C)C)c(O)c1 [thymol]
- Minimum inhibitory concentration (S. typhimurium): 0.250 gL^−1
- Minimum inhibitory concentration (E. coli [1]): 0.250 gL^−1
- Minimum inhibitory concentration (E. aerogenes): 0.250 gL^−1
- Minimum inhibitory concentration (L. innocua): 0.275 gL^−1
- Minimum inhibitory concentration (P. aeruginosa): 0.225 gL^−1
- Minimum inhibitory concentration (S. aureus [2]): 0.275 gL^−1
- Minimum inhibitory concentration (B. cinerea): 0.550 gL^−1
- Inhibition of mycelial growth versus viability control (B. cinerea mycelium; [5]): 4.7%
- Radial mycelial growth area (B. cinerea mycelium; [5]): 8.1±0.1 cm^2
- Inhibition of mycelial growth versus viability control (B. cinerea mycelium; [6]): 20%
- Radial mycelial growth area (B. cinerea mycelium; [6]): 6.8±0.8 cm^2
- Minimum inhibitory concentration (MIC) (S. aureus [3]): 250 ppm
- Minimum inhibitory concentration (MIC) (Listeria innocua): 250 ppm
- Minimum inhibitory concentration (MIC) (E. coli [4]): 250 ppm
- Minimum inhibitory concentration (MIC) (A. niger): 250 ppm
- Minimum inhibitory concentration (MIC) (S. cereviciae): 125 ppm
